These results are taken from paper PMC7306898, “Concentration-Dependent Activity of Hydromethylthionine on Clinical Decline and Brain Atrophy in a Randomized Controlled Trial in Behavioral Variant Frontotemporal Dementia” (Journal of Alzheimer's Disease, 2020).

Assay type in all cases: in vivo, human
In data set [1] the test system is bvFTD patients. As to the kind of experiment: Exposure-response and expanded Hill equation analysis. The method, then: The protocol specified that PK plasma sampling was to be conducted only at sites with adequate facilities (i.e., a refrigerated centrifuge and adequate capability to freeze samples reliably). Blinded analyses were conducted at the University of Aberdeen GLP Test Facility. […] The method was validated for use in the Phase III studies over the range 0.2 to 10 ng/ml. […] Model development and estimation of steady state maximum plasma concentration (Cmax,ss) were determined independently by the Institute of Clinical Pharmacodynamics (ICPD, NY, USA). Cmax,ss estimates using a model validated in Phase I studies were based on in-clinic plasma concentration data obtained on Day 1 when the dose-sampling interval was accurately recorded. […] Change in ACE-R, ACE-III, FAQ, MMSE, Modified-CGIC, FRS, whole brain volume (WBV), lateral ventricular volume (LVV), and frontotemporal volume (FTV), as well as UPDRS Part III, were expressed as a function of Cmax,ss estimates grouped into four groups described in the results section. Cmax,ss values outside 3x the interquartile range were excluded from determination of concentration-response relationships, but were included in inferential statistical analyses.
A further analysis was undertaken (HS, BOS) using a modified form of the Hill equation which is commonly used in the analysis of concentration-response data in order to estimate the minimum and maximum plasma concentrations for expected treatment response over 52 weeks. […] In addition, a linear term was added to permit trends occurring at high concentrations to be included in the model. […] The modified Hill equation was applied to the data in the form:
change in parameter = Emin - (Emax x ([C]- 0.29))/(EC50 + ([C] -0.29)) + (A x ([C] -0.29))
where dose is in mg/day and Cmax,ss is in ng/ml units.

Data set [2] relates to bvFTD patients. As to the kind of experiment: Functional Activities Questionnaire (FAQ), 52-week Phase III trial. The source says: The study was designed as a 52-week Phase III, randomized, controlled, double-blind, parallel-group trial conducted between May 2013 and February 2016 at 70 sites in Canada, United States, Australia, Asia, and Europe. Eligible patients had to be younger than 80 years of age with a diagnosis of bvFTD according to criteria revised by the International bvFTD Criteria Consortium [[1, 50]], with Mini-Mental Status Examination (MMSE) score greater than or equal to 20 at screening. In order to limit inclusion of bvFTD phenocopy cases, there was an additional requirement that patients had to meet the criterion of having definite brain atrophy in frontal and/or temporal lobes scoring 2 or more on a scale previously developed by Kipps et al.. Concomitant use of acetylcholinesterase inhibitors (AChEIs) or memantine (or both) was permitted provided this was at a stable dose for at least 18 weeks before randomization to minimize any potential early symptomatic effects of these treatments. Concomitant use of antidepressant, antipsychotic (except clozapine or olanzapine), and sedative medications was also permitted at stable doses where clinically feasible. Each patient had one or more study partners participate with them in the trial as informants. […] A detailed list of inclusion and exclusion criteria is in the protocol provided in the Supplementary Material. […]
The two doses were provided in identical blister packages as visually identical oral tablets to be taken for up to 52 weeks. […] Other outcomes included: Modified Alzheimer’s Disease Cooperative Study – Clinical Global Impression of Change (Modified-CGIC) determined by a third independent rater; Frontotemporal Dementia Rating Scale (FRS); MMSE (from MMSE items incorporated into ACE-R); Addenbrookes Cognitive Examination – III (a revised version of ACE-R which excludes MMSE items subject to copyright restrictions); change in brain volume measured by MRI in frontal and temporal lobes (FTV) and lateral ventricles (LVV); and the effect of hydromethylthionine in patients with known genetic mutations associated with bvFTD. […]

Data set [3] deals with bvFTD patients. As to the kind of experiment: MMSE, 52-week Phase III trial. The source says: The two doses were provided in identical blister packages as visually identical oral tablets to be taken for up to 52 weeks. The primary outcome was the Addenbrookes Cognitive Examination – Revised (ACE-R). The Functional Activities Questionnaire (FAQ) and reduction in progression of whole brain atrophy were alternative co-primary outcomes. Other outcomes included: Modified Alzheimer’s Disease Cooperative Study – Clinical Global Impression of Change (Modified-CGIC) determined by a third independent rater; Frontotemporal Dementia Rating Scale (FRS); MMSE (from MMSE items incorporated into ACE-R); Addenbrookes Cognitive Examination – III (a revised version of ACE-R which excludes MMSE items subject to copyright restrictions); change in brain volume measured by MRI in frontal and temporal lobes (FTV) and lateral ventricles (LVV); and the effect of hydromethylthionine in patients with known genetic mutations associated with bvFTD. Blood was collected prospectively for the purpose of population PK analyses.
The primary analyses were specified as a mixed model, repeated-measures analysis with an unstructured covariance matrix and no imputation for missing data. […]

Take `CN(C)c1ccc2c(c1)Sc1cc(N(C)C)ccc1N2` [hydromethylthionine, leuco-methylthioninium bis(hydromethanesulphonate)]: in the data set with bvFTD patients [1] (8 mg/day dose, bvFTD), the “plasma levels over which there are steep concentration-response relationships on clinical and MRI outcomes” value fell in the range of 0.3 to 0.6 ng/mL. For the same compound, the “dose at which pharmacological activity is predicted to peak in bvFTD” value in the data set with bvFTD patients [1] (Hill equation analyses) is on record as around 30 mg/day. The “doses at which treatment responses in bvFTD are predicted to be maximal / roughly comparable” value in the data set on bvFTD patients [1] (Hill equation analysis) was 20 to 60 mg/day. Also, the “predicted treatment effect on whole brain atrophy” value in the data set with bvFTD patients [1] (at 30 mg/day dose) is recorded as 18.52 cm^3. The “predicted treatment effect on the FAQ scale” value in the data set on bvFTD patients [1] (at 30 mg/day dose, mean, bootstrap analysis) was 7.73 units. The “theoretical dose corresponding to the upper limiting concentration” value in the data set with bvFTD patients [1] (expanded Hill equation) is listed as 301 mg/day. In addition, the “lower (minimum) limiting plasma concentration required for treatment response” value in the data set with bvFTD patients [1] (expanded Hill equation, 8 mg/day) turned out to be 0.29 ng/mL. Also, in the data set on bvFTD patients [1] (expanded Hill equation, whole brain volume, 200 mg/day terciles), the “upper limiting concentration at which the treatment effect would be lost” value amounted to 13.6 ng/mL. Moreover, in the data set with bvFTD patients [1] (upper limit of the lowest 35% group at 8 mg/day), the “plasma concentration (Cmax,ss) threshold required for clinical pharmacological activity in bvFTD” value came out at 0.346 ng/ml. Further, the “FAQ: Decline±SEM for LMTM 8 mg/day group” value in the data set with bvFTD patients [2] (8 mg/day (n = 110), modeled change from baseline at 52 weeks, MITT) is on record as 5.51±0.55. The “reduction in decline on the FAQ scale” value with bvFTD patients [2] (8 mg/day, plasma levels above vs below […] threshold) is on record as 46%. In the data set on bvFTD patients [2] (200 mg/day (n = 104) vs 8 mg/day, 52 weeks, MITT), the “FAQ: Difference±SEM from LMTM 8 mg/day for 200 mg/day” value was “–0.39±0.84”. Moreover, the “MMSE: Decline±SEM for LMTM 8 mg/day group” value in the data set on bvFTD patients [3] (8 mg/day (n = 110), modeled change from baseline at 52 weeks) is reported as “–3.41±0.53”. Moreover, the “MMSE: Difference±SEM from LMTM 8 mg/day for 200 mg/day” value in the data set on bvFTD patients [3] (200 mg/day (n = 104) vs 8 mg/day, 52 weeks) is “–0.12±0.80”.
